Source: the NIST ThermoML archive (doi:10.1021/je300941v)
± gives the expanded uncertainty stated by the source.

Key:
[1] = xn = mol fraction of the nth substance listed; details: 101 kPa, Liquid, Vibrating tube method
[2] = 101.33 kPa, Liquid, Vibrating tube method

CCCC[N+]1(C)CCCC1.O=S(=O)([N-]S(=O)(=O)C(F)(F)F)C(F)(F)F + CN(C)C=O
mass density ([1]; 293.15 K, x1 = 0.0912): 1074.98 ± 0.17 kg/m3 | mass density ([1]; 293.15 K, x1 = 0.1871): 1161.1 ± 0.22 kg/m3 | mass density ([1]; 293.15 K, x1 = 0.2922): 1224.53 ± 0.25 kg/m3 | mass density ([1]; 293.15 K, x1 = 0.3783): 1262.14 ± 0.27 kg/m3 | mass density ([1]; 293.15 K, x1 = 0.4845): 1298.31 ± 0.31 kg/m3 | mass density ([1]; 293.15 K, x1 = 0.5809): 1324.74 ± 0.33 kg/m3 | mass density ([1]; 293.15 K, x1 = 0.6768): 1346.86 ± 0.37 kg/m3 | mass density ([1]; 293.15 K, x1 = 0.7744): 1366.1 ± 0.42 kg/m3 | mass density ([1]; 293.15 K, x1 = 0.8686): 1381.39 ± 0.48 kg/m3 | mass density ([1]; 298.15 K, x1 = 0.0912): 1070.09 ± 0.17 kg/m3 | mass density ([1]; 298.15 K, x1 = 0.1871): 1156.23 ± 0.22 kg/m3 | mass density ([1]; 298.15 K, x1 = 0.2922): 1219.62 ± 0.26 kg/m3 | mass density ([1]; 298.15 K, x1 = 0.3783): 1257.32 ± 0.27 kg/m3 | mass density ([1]; 298.15 K, x1 = 0.4845): 1293.53 ± 0.31 kg/m3 | mass density ([1]; 298.15 K, x1 = 0.5809): 1319.99 ± 0.33 kg/m3 | mass density ([1]; 298.15 K, x1 = 0.6768): 1342.16 ± 0.37 kg/m3 | mass density ([1]; 298.15 K, x1 = 0.7744): 1361.38 ± 0.42 kg/m3 | mass density ([1]; 298.15 K, x1 = 0.8686): 1376.73 ± 0.48 kg/m3 | mass density ([1]; 303.15 K, x1 = 0.0912): 1065.22 ± 0.17 kg/m3 | mass density ([1]; 303.15 K, x1 = 0.1871): 1151.35 ± 0.22 kg/m3 | mass density ([1]; 303.15 K, x1 = 0.2922): 1214.77 ± 0.25 kg/m3 | mass density ([1]; 303.15 K, x1 = 0.3783): 1252.53 ± 0.27 kg/m3 | mass density ([1]; 303.15 K, x1 = 0.4845): 1288.82 ± 0.31 kg/m3 | mass density ([1]; 303.15 K, x1 = 0.5809): 1315.37 ± 0.33 kg/m3 | mass density ([1]; 303.15 K, x1 = 0.6768): 1337.55 ± 0.37 kg/m3 | mass density ([1]; 303.15 K, x1 = 0.7744): 1356.72 ± 0.42 kg/m3 | mass density ([1]; 303.15 K, x1 = 0.8686): 1372.14 ± 0.48 kg/m3 | mass density ([1]; 308.15 K, x1 = 0.0912): 1060.4 ± 0.17 kg/m3 | mass density ([1]; 308.15 K, x1 = 0.1871): 1146.5 ± 0.22 kg/m3 | mass density ([1]; 308.15 K, x1 = 0.2922): 1210 ± 0.25 kg/m3 | mass density ([1]; 308.15 K, x1 = 0.3783): 1247.8 ± 0.27 kg/m3 | mass density ([1]; 308.15 K, x1 = 0.4845): 1284.1 ± 0.3 kg/m3 | mass density ([1]; 308.15 K, x1 = 0.5809): 1310.7 ± 0.32 kg/m3 | mass density ([1]; 308.15 K, x1 = 0.6768): 1332.9 ± 0.36 kg/m3 | mass density ([1]; 308.15 K, x1 = 0.7744): 1352 ± 0.41 kg/m3 | mass density ([1]; 308.15 K, x1 = 0.8686): 1367.6 ± 0.47 kg/m3 | mass density ([1]; 313.15 K, x1 = 0.0912): 1055.43 ± 0.16 kg/m3 | mass density ([1]; 313.15 K, x1 = 0.1871): 1141.58 ± 0.22 kg/m3 | mass density ([1]; 313.15 K, x1 = 0.2922): 1205.17 ± 0.25 kg/m3 | mass density ([1]; 313.15 K, x1 = 0.3783): 1243.01 ± 0.27 kg/m3 | mass density ([1]; 313.15 K, x1 = 0.4845): 1279.29 ± 0.3 kg/m3 | mass density ([1]; 313.15 K, x1 = 0.5809): 1306.04 ± 0.32 kg/m3 | mass density ([1]; 313.15 K, x1 = 0.6768): 1328.25 ± 0.36 kg/m3 | mass density ([1]; 313.15 K, x1 = 0.7744): 1347.28 ± 0.41 kg/m3 | mass density ([1]; 313.15 K, x1 = 0.8686): 1363.02 ± 0.47 kg/m3 | mass density ([1]; 318.15 K, x1 = 0.0912): 1050.48 ± 0.16 kg/m3 | mass density ([1]; 318.15 K, x1 = 0.1871): 1136.63 ± 0.22 kg/m3 | mass density ([1]; 318.15 K, x1 = 0.2922): 1200.26 ± 0.25 kg/m3 | mass density ([1]; 318.15 K, x1 = 0.3783): 1238.22 ± 0.27 kg/m3 | mass density ([1]; 318.15 K, x1 = 0.4845): 1274.53 ± 0.3 kg/m3 | mass density ([1]; 318.15 K, x1 = 0.5809): 1301.32 ± 0.32 kg/m3 | mass density ([1]; 318.15 K, x1 = 0.6768): 1323.54 ± 0.36 kg/m3 | mass density ([1]; 318.15 K, x1 = 0.7744): 1342.91 ± 0.41 kg/m3 | mass density ([1]; 318.15 K, x1 = 0.8686): 1358.3 ± 0.47 kg/m3 | mass density ([1]; 323.15 K, x1 = 0.0912): 1045.36 ± 0.16 kg/m3 | mass density ([1]; 323.15 K, x1 = 0.1871): 1131.55 ± 0.25 kg/m3 | mass density ([1]; 323.15 K, x1 = 0.2922): 1195.32 ± 0.26 kg/m3 | mass density ([1]; 323.15 K, x1 = 0.3783): 1233.32 ± 0.27 kg/m3 | mass density ([1]; 323.15 K, x1 = 0.4845): 1269.65 ± 0.3 kg/m3 | mass density ([1]; 323.15 K, x1 = 0.5809): 1296.48 ± 0.32 kg/m3 | mass density ([1]; 323.15 K, x1 = 0.6768): 1318.83 ± 0.36 kg/m3 | mass density ([1]; 323.15 K, x1 = 0.7744): 1338.2 ± 0.41 kg/m3 | mass density ([1]; 323.15 K, x1 = 0.8686): 1353.61 ± 0.46 kg/m3

CNC=O [N-methylformamide]
mass density ([2]; 293.15 K): 1003.59 ± 0.25 kg/m3 | mass density ([2]; 298.15 K): 999.19 ± 0.24 kg/m3 | mass density ([2]; 303.15 K): 994.75 ± 0.24 kg/m3 | mass density ([2]; 308.15 K): 990.33 ± 0.24 kg/m3 | mass density ([2]; 313.15 K): 985.78 ± 0.24 kg/m3 | mass density ([2]; 318.15 K): 981.23 ± 0.24 kg/m3 | mass density ([2]; 323.15 K): 976.57 ± 0.24 kg/m3

CN(C)C=O [dimethylformamide]
mass density ([2]; 293.15 K): 948.79 ± 0.14 kg/m3 | mass density ([2]; 298.15 K): 943.87 ± 0.14 kg/m3 | mass density ([2]; 303.15 K): 938.98 ± 0.14 kg/m3 | mass density ([2]; 308.15 K): 934.07 ± 0.14 kg/m3 | mass density ([2]; 313.15 K): 929.11 ± 0.14 kg/m3 | mass density ([2]; 318.15 K): 924.04 ± 0.14 kg/m3 | mass density ([2]; 323.15 K): 918.91 ± 0.14 kg/m3
